Data taken from patent US5089424A, “Method and apparatus for heterogeneous chemiluminescence assay” (Abbott Laboratories, priority 1989, dated 1992).

How the values were obtained:
anti-PCP antibody = assay: Fluorescence polarization competitive binding assay in solution (TDx), fluorescein-labeled PCP analog; settings: 0 ng/mL: 198
[1] = test system: Anti-phenylcyclidine antibodies; assay: Ion-capture alkaline phosphatase labeled chemiluminescence competitive binding immunoassay for phenylcyclidine in urine; settings: 0 ng/mL: 3526
[2] = test system: Monoclonal anti-phenylcyclidine antibody; assay: Ion-capture acridinium labeled chemiluminescence competitive binding immunoassay for phenylcyclidine (PCP) in urine; settings: for Signal Counts: integrated for eight seconds, 0 ng/mL: 188329
Procedure: Monoclonal anti-phenylcyclidine antibody was labeled with acridinium sulfonamide using EDAC coupling procedures known in the art. It was kept in the same buffer used for the anti-core conjugate of Example 3.
80 μL of IMx Tris buffer solution followed by 80 μL Celquat™ L-200 solutions were dispensed on the glass fiber matrices of the disposable reaction tray. Solutions were dispensed using two FMI-RH pumps and controlled via a triac board by an Intel 310 Development System (Intel Inc., Sunnyvale, Calif.). The tray was moved on a linear track using a timing belt and a stepper motor. The stepper motor was controlled by a board employing components known in the art. After 4.8 minutes, 50 μL of calibrator (sample) was pipetted into the shallow reaction wells of a disposable reaction tray, using an automated pipettor. 50 μL of acridinium labeled anti-PCP antibodies was dispensed into each incubation well. The mixture was incubated for 9.6 minutes in a heated tunnel at 32° C. with the disposable device moving into the tunnel by the timing belt in steps at the rate of 0.8 inches per minute, the reaction tray being stationary for 36 seconds after each step for a reaction step to take place. After 9.6 minutes incubation on the moving timing belt, 50 μL a solution containing PCP-PGA capture reagent at a concentration of 1.9 mg PGA/mL was dispensed into the incubation well through a tip centered on the well. The capture reagent solution was dispensed by an FMI-RH pump and controlled by the 310 Development system through a triac interface board. The reaction mixture was further incubated for 9.6 minutes. The quaternary ammonium polymer-treated glass fiber matrices were rinsed with 100 μL of the IMx buffer before reaction mixture transfer.
As the disposable tray was positioned under the transfer device as described herein, the reaction mixture was transferred and washed from the shallow incubation well onto the pre-treated glass fiber matrix in the detection well. The disposable tray was moved on the timing belt to allow subsequent well pairs to be located under the transfer device and to affect transfer of the reaction mixture. The disposable device was then moved to a read position, where the chemiluminescence detection head of the present invention was lowered to mate with the surface feature on the first two wells on the disposable to create a light-tight seal. The retained and immobilized immune complex on the glass fiber matrix was triggered using 0.3% alkaline peroxide solution in 0.25M NaOH and the signal from each PMT/amplifier was controlled by a counter/timer board and each side was triggered with an independent pump. The photon counter signal was integrated for eight seconds.

c1ccc(C2(N3CCCCC3)CCCCC2)cc1 [Phenylcyclidine, phenylcyclidine]
Net Polarization (anti-PCP antibody; Table 4, 25 ng/mL): 173 ΔmP | Net Polarization (anti-PCP antibody; Table 4, 60 ng/mL): 144 ΔmP | Net Polarization (anti-PCP antibody; Table 4, 250 ng/mL): 82 ΔmP | Net Polarization (anti-PCP antibody; Table 5, 25 ng/mL): 173 | Net Polarization (anti-PCP antibody; Table 5, 60 ng/mL): 144 | Net Polarization (anti-PCP antibody; Table 5, 120 ng/mL): 112 | Net Polarization (anti-PCP antibody; Table 5, 250 ng/mL): 82 | Net Polarization (anti-PCP antibody; Table 5, 500 ng/mL): 65 | Chemiluminescence signal ([1]; 25 ng/mL phenylcyclidine in human urine): 2162 counts/6 seconds | Chemiluminescence signal ([1]; 60 ng/mL phenylcyclidine in human urine): 1440 counts/6 seconds | Chemiluminescence signal ([1]; 250 ng/mL phenylcyclidine in human urine): 1016 counts/6 seconds | % Inhibition ([2]; 25 ng/mL PCP in human urine): 73.3% | Signal Counts ([2]; 25 ng/mL PCP in human urine): 50347 counts | % Inhibition ([2]; 60 ng/mL PCP in human urine): 83.6% | Signal Counts ([2]; 60 ng/mL PCP in human urine): 30839 counts | % Inhibition ([2]; 120 ng/mL PCP in human urine): 87.3% | Signal Counts ([2]; 120 ng/mL PCP in human urine): 23977 counts | % Inhibition ([2]; 250 ng/mL PCP in human urine): 89.2% | Signal Counts ([2]; 250 ng/mL PCP in human urine): 20379 counts | % Inhibition ([2]; 500 ng/mL PCP in human urine): 89.5% | Signal Counts ([2]; 500 ng/mL PCP in human urine): 19759 counts
